Source: article PMC9154192 (PLoS Biology, 2022)
In brackets after ≈: the same amount, converted by molar mass.

Test system: M. bovis BCG strains
Assay: organism not typed
Format: cell-based, Mycobacterium bovis BCG

NNC(=O)c1ccncc1 [INH, isoniazid, reference compound] was tested, and the MIC was 0.2 µg/mL (≈ 1.46 µM).
